In patent US20260285850A1, “SUBSTITUTED OXAZOLIDINONES AND IMIDAZOLINONES AS HERBICIDES” (FMC CORPORATION, priority 2023, published 2026):

Columns and labels:
Format in all cases: in vivo
[1] = system: barnyardgrass (Echinochloa crus-galli); experiment: Test A preemergence soil spray, visual injury rating 0-100; conditions: 10 days, 0 = no effect, 100 = complete control
Method in brief: (§1)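 Loam-sand pots got test material in surfactant-containing solvent, either as a directed soil spray before emergence or on plants at the one- to two-leaf stage. Visual injury (0-100) was read after ten greenhouse days.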

[2] = system: kochia (Bassia scoparia); experiment: as above; conditions: 10 days, 0 = no effect, 100 = complete control
Method in brief: as §1

[3] = system: blackgrass (Alopecurus myosuroides); experiment: as above; conditions: 10 days, 0 = no effect, 100 = complete control
Method in brief: as §1

[4] = system: ryegrass, Italian (italian ryegrass, Lolium multiflorum); experiment: as above; conditions: 10 days, 0 = no effect, 100 = complete control
Method in brief: as §1

[5] = system: palmer (palmer amaranth, palmer pigweed, Amaranthus palmeri); experiment: as above; conditions: 10 days, 0 = no effect, 100 = complete control
Method in brief: as §1

[6] = system: wheat (Triticum aestivum); experiment: as above; conditions: 10 days, 0 = no effect, 100 = complete control
Method in brief: as §1

[7] = system: ragweed (common ragweed, Ambrosia artemisiifolia); experiment: as above; conditions: 10 days, 0 = no effect, 100 = complete control
Method in brief: as §1

[8] = system: soybean (Glycine max); experiment: as above; conditions: 10 days, 0 = no effect, 100 = complete control
Method in brief: as §1

[9] = system: oat, wild (wild oat, Avena fatua); experiment: as above; conditions: 10 days, 0 = no effect, 100 = complete control
Method in brief: as §1

[10] = system: corn (Zea mays); experiment: as above; conditions: 10 days, 0 = no effect, 100 = complete control
Method in brief: as §1

[11] = system: ducksalad (Heteranthera limosa); experiment: Test B flooded paddy test, visual plant response rating 0-100; conditions: 250 g ai/ha, Flood, applied to paddy water, evaluated after 13 days
Method in brief: (§2)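 Plants were grown to the 2-leaf stage, then pots were flooded to 3 cm above the soil and test compounds were applied directly into the paddy water. Water depth was held there throughout; after 13 days in a greenhouse, injury was scored visually against untreated controls.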

[12] = system: sedge, umbrella (small-flower umbrella sedge, Cyperus difformis); experiment: as above; conditions: 250 g ai/ha, Flood, applied to paddy water, evaluated after 13 days
Method in brief: as §2

[13] = system: barnyardgrass (Echinochloa crusgalli); experiment: as above; conditions: 250 g ai/ha, Flood, applied to paddy water, evaluated after 13 days
Method in brief: as §2

[14] = system: rice (Oryza sativa); experiment: as above; conditions: 250 g ai/ha, Flood, applied to paddy water, evaluated after 13 days
Method in brief: as §2

[15] = system: barnyardgrass (Echinochloa crus-galli); experiment: Test A postemergence application, visual injury rating 0-100; conditions: 10 days
Method in brief: as §1

[16] = system: kochia (Bassia scoparia); experiment: as above; conditions: 10 days
Method in brief: as §1

[17] = system: blackgrass (Alopecurus myosuroides); experiment: as above; conditions: 10 days
Method in brief: as §1

[18] = system: ryegrass, Italian (italian ryegrass, Lolium multiflorum); experiment: as above; conditions: 10 days
Method in brief: as §1

[19] = system: galium (catchweed bedstraw, Galium aparine); experiment: as above; conditions: 10 days
Method in brief: as §1

[20] = system: palmer (palmer amaranth, palmer pigweed, Amaranthus palmeri); experiment: as above; conditions: 10 days
Method in brief: as §1

[21] = system: wheat (Triticum aestivum); experiment: as above; conditions: 10 days
Method in brief: as §1

[22] = system: ragweed (common ragweed, Ambrosia artemisiifolia); experiment: as above; conditions: 10 days
Method in brief: as §1

[23] = system: soybean (Glycine max); experiment: as above; conditions: 10 days
Method in brief: as §1

[24] = system: oat, wild (wild oat, Avena fatua); experiment: as above; conditions: 10 days
Method in brief: as §1

[25] = system: horseweed (Erigeron canadensis); experiment: as above; conditions: 10 days
Method in brief: as §1

[26] = system: corn (Zea mays); experiment: as above; conditions: 10 days
Method in brief: as §1

[27] = 31 g ai/ha, postemergence, 0 = no effect, 100 = complete control
[28] = Postemergence, 125 g ai/ha, 0 is no effect, 100 is complete control

CCOC(=O)C1=CCC(NC(=O)C2(C)CN(c3cc(Cl)cc(Cl)c3)C(=O)O2)C1 (stereo not drawn) [Compound 60]
40: Kochia plant response rating (0-100) ([2]; 31 g ai/ha) | Soybean plant response rating (0 to 100 scale) ([8]; 125 g ai/ha) | Wheat plant response rating (0-100) [21, 27]
70: Plant response rating, Barnyardgrass (0 to 100 scale, 0 is no effect and 100 is complete control) [13] | Horseweed plant response rating (0-100) [25, 27]
65: Plant response rating, Rice (0 to 100 scale, 0 is no effect and 100 is complete control) [14]
95: Plant response rating, Ducksalad (0 to 100 scale, 0 is no effect and 100 is complete control) [11]
30: Ragweed plant response rating (0-100) ([7]; 31 g ai/ha)
80: Wheat plant response rating (0 to 100 scale) ([6]; 125 g ai/ha) | Kochia plant response rating (0-100) [16, 27] | Kochia plant response rating (0 to 100 scale) [16, 28]
0: Blackgrass plant response rating (0-100) ([3]; 31 g ai/ha) | Oat, Wild plant response rating (0-100) ([9]; 31 g ai/ha) | Corn plant response rating (0-100) ([10]; 31 g ai/ha) | Ragweed plant response rating (0-100) [22, 27]
50: Blackgrass plant response rating (0 to 100 scale) ([3]; 125 g ai/ha)
90: Kochia plant response rating (0 to 100 scale) ([2]; 125 g ai/ha) | Ryegrass, Italian plant response rating (0 to 100 scale) ([4]; 125 g ai/ha) | Barnyardgrass plant response rating (0-100) [15, 27] | Barnyardgrass plant response rating (0 to 100 scale) [15, 28] | Blackgrass plant response rating (0-100) [17, 27] | Ryegrass, Italian plant response rating (0-100) [18, 27] | Galium plant response rating (0-100) [19, 27] | Galium plant response rating (0 to 100 scale) [19, 28] | Amaranth, Palmer plant response rating (0-100) [20, 27] | Wheat plant response rating (0 to 100 scale) [21, 28] | Soybean plant response rating (0-100) [23, 27] | Oat, Wild plant response rating (0 to 100 scale) [24, 28] | Horseweed plant response rating (0 to 100 scale) [25, 28] | Corn plant response rating (0-100) [26, 27]
60: Barnyardgrass plant response rating (0-100) ([1]; 31 g ai/ha) | Ryegrass, Italian plant response rating (0-100) ([4]; 31 g ai/ha) | Ragweed plant response rating (0 to 100 scale) ([7]; 125 g ai/ha) | Corn plant response rating (0 to 100 scale) ([10]; 125 g ai/ha)
20: Wheat plant response rating (0-100) ([6]; 31 g ai/ha) | Oat, Wild plant response rating (0 to 100 scale) ([9]; 125 g ai/ha) | Ragweed plant response rating (0 to 100 scale) [22, 28]
100: Barnyardgrass plant response rating (0 to 100 scale) ([1]; 125 g ai/ha) | Amaranth, Palmer plant response rating (0-100) ([5]; 31 g ai/ha) | Amaranth, Palmer plant response rating (0 to 100 scale) ([5]; 125 g ai/ha) | Plant response rating, Sedge, Umbrella (0 to 100 scale, 0 is no effect and 100 is complete control) [12] | Blackgrass plant response rating (0 to 100 scale) [17, 28] | Ryegrass, Italian plant response rating (0 to 100 scale) [18, 28] | Amaranth, Palmer / Pigweed, Palmer plant response rating (0 to 100 scale) [20, 28] | Soybean plant response rating (0 to 100 scale) [23, 28] | Corn plant response rating (0 to 100 scale) [26, 28]
10: Soybean plant response rating (0-100) ([8]; 31 g ai/ha) | Oat, Wild plant response rating (0-100) [24, 27]
